Assay results reported in PubChem BioAssay (NCI).
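In this assay, cells in 96-well plates receive the compound at five concentrations for 48 hours. Endpoints are linearly interpolated between the surrounding concentrations. GI50 is the concentration that inhibits growth by half. TGI: concentration producing complete growth inhibition.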

How the values were obtained:
Experiment in all cases: NCI-60 cell line screen, 48 h
[1] = test system: SNB-75 CNS
[2] = test system: K-562 leukemia
[3] = test system: UO-31 renal
[4] = test system: SNB-19 CNS
[5] = test system: ACHN renal
[6] = test system: HOP-62 NSCLC
[7] = test system: UACC-62 melanoma
[8] = test system: 786-0 renal
[9] = test system: OVCAR-5 ovarian
[10] = test system: HOP-92 NSCLC

Row | SMILES | TGI [1] [µM] | TGI [2] [µM] | TGI [3] [µM] | TGI [4] [µM] | TGI [5] [µM] | TGI [6] [µM] | TGI [7] [µM] | TGI [8] [µM] | TGI [9] [µM] | TGI [10] [µM] | GI50 [1] [µM] | GI50 [3] [µM] | GI50 [9] [µM] | GI50 [4] [µM] | GI50 [5] [µM] | GI50 [6] [µM] | GI50 [8] [µM] | GI50 [7] [µM] | GI50 [10] [µM]
1 | C=C1CCC2(C(C)=O)COC1(C)O2 (stereo unspecified) | > 100 | > 100 | > 100 | > 100 | > 100 | > 100 | > 100 | > 100 | – | – | – | – | – | – | – | – | – | – | –
2 | O=C1C(Cl)C(c2ccc([N+](=O)[O-])cc2)N1n1cnc2ccccc2c1=O (stereo unspecified) | 39 | > 100 | > 100 | > 100 | > 100 | > 100 | > 100 | > 100 | > 100 | – | – | – | – | – | – | – | – | – | –
3 | O=c1sc(-c2nc3ccccc3[nH]2)c(/N=C/c2ccccc2)n1-c1ccccc1 | 57.8 | > 100 | > 100 | > 100 | > 100 | 73.7 | > 100 | > 100 | > 100 | – | – | – | – | – | – | – | – | – | –
4 | Cc1cc2c(C)nn(Cc3ccccc3Cl)c2c(C#N)c1C | > 100 | – | > 100 | > 100 | > 100 | > 100 | > 100 | > 100 | > 100 | > 100 | – | – | – | – | – | – | – | – | –
5 | C/C(CC(=O)Nc1ccc([N+](=O)[O-])cc1)=N\Nc1ccc([N+](=O)[O-])cc1[N+](=O)[O-] | > 100 | > 100 | > 100 | – | > 100 | > 100 | > 100 | > 100 | > 100 | > 100 | – | – | – | – | – | – | – | – | –
6 | c1cnc2nc3n(c2c1)CSC3 | > 100 | > 100 | > 100 | – | > 100 | > 100 | > 100 | > 100 | > 100 | > 100 | – | – | – | – | – | – | – | – | –
7 | O=C1C(=Cc2ccc([N+](=O)[O-])o2)C(=O)N(CCc2ccccc2)S(=O)(=O)N1CCc1ccccc1 | > 100 | > 100 | > 100 | > 100 | 31.2 | – | 31 | 40.3 | > 100 | 33.5 | – | – | – | – | – | – | – | – | –
8 | CCOC(=O)CP(=S)(S)c1ccccc1 (stereo unspecified) | – | > 100 | > 100 | > 100 | > 100 | > 100 | > 100 | > 100 | > 100 | > 100 | – | – | – | – | – | – | – | – | –
9 | COc1cc(OC)c(/C=C/C(=O)c2c(O)cc(OC)c(C3CCN(C)CC3)c2OC)c(OC)c1 | 2.86 | – | 2.81 | 3.81 | 2.98 | 3.16 | – | 2.72 | 2.84 | – | 1.39 | 1.36 | 1.48 | 1.78 | 1.58 | 1.73 | 1.42 | – | –
10 | COC(=O)CC1NC(=O)C1C(C)(OC)OC (stereo unspecified) | > 100 | > 100 | > 100 | > 100 | > 100 | > 100 | > 100 | > 100 | – | – | – | – | – | – | – | – | – | – | –
11 | O=C(CC(=O)N1N=C(c2ccccc2)C(N=Nc2ccccc2Cl)C1=O)Nc1ccccc1Cl (stereo unspecified) | 49.9 | > 100 | > 100 | > 100 | 99.6 | > 100 | > 100 | 49.6 | > 100 | – | – | – | – | – | – | – | – | – | –
12 | CN(CCCCN)c1ccc2c(=O)[nH][nH]c(=O)c2c1 | > 100 | > 100 | > 100 | – | > 100 | > 100 | > 77 | > 100 | > 100 | > 100 | – | – | – | – | – | – | – | – | –
13 | COc1cc(CC2C(=O)OCC2[C@@H](OC(C)=O)c2ccc3c(c2)OCO3)c(Br)c(OC)c1OC (stereo partly specified) | > 100 | – | > 100 | > 100 | > 100 | > 100 | > 100 | > 100 | – | 92.7 | – | – | – | – | – | – | – | – | –
14 | CSCC(COC(C)=O)(CSC)c1ccncc1 | > 100 | > 100 | > 100 | > 100 | > 100 | > 100 | > 100 | > 100 | – | – | – | – | – | – | – | – | – | – | –
15 | NNC(=S)NN/C=C(\C=Nc1ccccc1)[N+](=O)[O-] | > 100 | – | – | > 100 | > 100 | > 100 | > 100 | > 100 | > 100 | > 100 | – | – | – | – | – | – | – | – | –
16 | C=C(C)[C@@H]1CC[C@]2(C(=O)N3CCN(C)CC3)CC[C@]3(C)[C@H](CC[C@@H]4[C@@]5(C)CC[C@H](O)C(C)(C)[C@@H]5CC[C@]43C)[C@@H]12 | 3.27 | – | 3.24 | 3.92 | 3.12 | 3.75 | 3.3 | 3.17 | 3.28 | 3.42 | 1.64 | 1.67 | 1.75 | 1.83 | 1.69 | 1.91 | 1.49 | 1.72 | 1.69
17 | Cc1cc(C)c(C2=NO[C@@H]3C(=O)N(c4ccc(Cc5ccc(N6C(=O)[C@H]7C(c8c(C)cc(C)cc8C)=NO[C@H]7C6=O)cc5)cc4)C(=O)[C@H]23)c(C)c1 | > 100 | > 100 | > 100 | – | – | > 100 | > 100 | > 100 | > 100 | > 100 | – | – | – | – | – | – | – | – | –
